# Test system: rodent lifetime carcinogenesis bioassay, tumor incidence TD50
# Assay: chronic cancer bioassays in animals – CPDB, compiled studies (AID 1745844)
structure (smiles),measurement,setting,value
CNNCc1ccc(C(=O)NC(C)C)cc1,TD50,"monkey, strain Cynomolgus [Macaca fascicularis], both sexes, several routes, site: all sites, lesion: acute nonlymphocytic leukemia, dosed 825 weeks, study length 980 weeks",14.8 mg/kg/day
same,TD50,"monkey, strain Cynomolgus [Macaca fascicularis], both sexes, several routes, site: all sites, lesion: lymphocytic lymphoma, dosed 825 weeks, study length 980 weeks",21.1 mg/kg/day
same,TD50,"monkey, strain Cynomolgus [Macaca fascicularis], both sexes, several routes, site: any site (literature study), lesion: malignant tumor, dosed 825 weeks, study length 980 weeks",1.73 mg/kg/day
same,TD50,"monkey, strain Cynomolgus [Macaca fascicularis], both sexes, several routes, site: bone, lesion: osteosarcoma, dosed 825 weeks, study length 980 weeks",5.91 mg/kg/day
same,TD50,"monkey, strain Cynomolgus [Macaca fascicularis], both sexes, several routes, site: brain, lesion: astrocytoma, dosed 825 weeks, study length 980 weeks",6.19 mg/kg/day
same,TD50,"monkey, strain Cynomolgus [Macaca fascicularis], both sexes, several routes, site: kidney, lesion: hemangiosarcoma, dosed 825 weeks, study length 980 weeks",23.5 mg/kg/day
same,TD50,"monkey, strain Rhesus [Macaca mulatta], both sexes, several routes, site: all sites, lesion: acute nonlymphocytic leukemia, dosed 825 weeks, study length 1182 weeks",4.21 mg/kg/day
same,TD50,"monkey, strain Rhesus [Macaca mulatta], both sexes, several routes, site: any site (literature study), lesion: malignant tumor, dosed 825 weeks, study length 1182 weeks",1.9 mg/kg/day
same,TD50,"monkey, strain Rhesus [Macaca mulatta], both sexes, several routes, site: cecum, lesion: adenocarcinoma, dosed 825 weeks, study length 1182 weeks",5.16 mg/kg/day
same,TD50,"monkey, strain Rhesus [Macaca mulatta], both sexes, several routes, site: humerus, lesion: osteosarcoma, dosed 825 weeks, study length 1182 weeks",32.7 mg/kg/day
same,TD50,"monkey, strain Rhesus [Macaca mulatta], both sexes, several routes, site: kidney, lesion: hemangiosarcoma, dosed 825 weeks, study length 1182 weeks",39.6 mg/kg/day
same,TD50,"mouse, strain B6C3F1, females, i.p., site: all sites + brain + lung + uterus, lesion: leukemia + lymphoma + olfactory neuroblastoma + alveolar/bronchiolar adenoma + adenocarcinoma, NOS, dosed 52 weeks, study length 85 weeks",0.194 mg/kg/day
same,TD50,"mouse, strain B6C3F1, females, i.p., site: all sites, lesion: leukemia + lymphoma, dosed 52 weeks, study length 80 weeks",0.69 mg/kg/day
same,TD50,"mouse, strain B6C3F1, females, i.p., site: all sites, lesion: leukemia + lymphoma, dosed 52 weeks, study length 85 weeks",0.758 mg/kg/day
same,TD50,"mouse, strain B6C3F1, females, i.p., site: all sites, lesion: lymphoma, dosed 52 weeks, study length 80 weeks",0.855 mg/kg/day
same,TD50,"mouse, strain B6C3F1, females, i.p., site: all sites, lesion: lymphoma, dosed 52 weeks, study length 85 weeks",0.908 mg/kg/day
same,TD50,"mouse, strain B6C3F1, females, i.p., site: any site (literature study), lesion: several types, types named in the paper, dosed 52 weeks, study length 85 weeks",0.193 mg/kg/day
same,TD50,"mouse, strain B6C3F1, females, i.p., site: brain, lesion: olfactory neuroblastoma, dosed 52 weeks, study length 80 weeks",5.62 mg/kg/day
same,TD50,"mouse, strain B6C3F1, females, i.p., site: brain, lesion: olfactory neuroblastoma, dosed 52 weeks, study length 85 weeks",6.34 mg/kg/day
same,TD50,"mouse, strain B6C3F1, females, i.p., site: lung, lesion: alveolar/bronchiolar adenoma + alveolar/bronchiolar carcinoma, dosed 52 weeks, study length 85 weeks",3.83 mg/kg/day
same,TD50,"mouse, strain B6C3F1, females, i.p., site: lung, lesion: alveolar/bronchiolar adenoma, dosed 52 weeks, study length 80 weeks",3.39 mg/kg/day
same,TD50,"mouse, strain B6C3F1, females, i.p., site: lung, lesion: alveolar/bronchiolar adenoma, dosed 52 weeks, study length 85 weeks",3.83 mg/kg/day
same,TD50,"mouse, strain B6C3F1, females, i.p., site: uterus, lesion: adenocarcinoma, NOS, dosed 52 weeks, study length 80 weeks",0.411 mg/kg/day
same,TD50,"mouse, strain B6C3F1, females, i.p., site: uterus, lesion: adenocarcinoma, NOS, dosed 52 weeks, study length 85 weeks",0.253 mg/kg/day
same,TD50,"mouse, strain B6C3F1, males, i.p., site: all sites + brain + lung, lesion: leukemia + lymphoma + olfactory neuroblastoma + undifferentiated carcinoma + alveolar/bronchiolar adenoma + alveolar/bronchiolar c, dosed 52 weeks, study length 85 weeks",0.511 mg/kg/day
same,TD50,"mouse, strain B6C3F1, males, i.p., site: all sites, lesion: leukemia + lymphoma, dosed 52 weeks, study length 85 weeks",3.34 mg/kg/day
same,TD50,"mouse, strain B6C3F1, males, i.p., site: any site (literature study), lesion: several types, types named in the paper, dosed 52 weeks, study length 85 weeks",0.464 mg/kg/day
same,TD50,"mouse, strain B6C3F1, males, i.p., site: brain, lesion: olfactory neuroblastoma + undifferentiated carcinoma, dosed 52 weeks, study length 85 weeks",4.51 mg/kg/day
same,TD50,"mouse, strain B6C3F1, males, i.p., site: brain, lesion: olfactory neuroblastoma, dosed 52 weeks, study length 85 weeks",5.19 mg/kg/day
same,TD50,"mouse, strain B6C3F1, males, i.p., site: liver, lesion: hepatocellular adenoma + hepatocellular carcinoma + neoplastic nodule, dosed 52 weeks, study length 85 weeks",3.28 mg/kg/day
same,TD50,"mouse, strain B6C3F1, males, i.p., site: lung, lesion: alveolar/bronchiolar adenoma + alveolar/bronchiolar carcinoma, dosed 52 weeks, study length 85 weeks",0.623 mg/kg/day
same,TD50,"mouse, strain B6C3F1, males, i.p., site: lung, lesion: alveolar/bronchiolar adenoma, dosed 52 weeks, study length 85 weeks",0.721 mg/kg/day
same,TD50,"mouse, strain Swiss, females, i.p., site: all sites, lesion: leukemia, dosed 26 weeks, study length 76 weeks",3.72 mg/kg/day
same,TD50,"mouse, strain Swiss, females, i.p., site: all sites, lesion: lymphosarcoma, dosed 26 weeks, study length 76 weeks",6.99 mg/kg/day
same,TD50,"mouse, strain Swiss, females, i.p., site: any site (literature study), lesion: benign tumor, dosed 26 weeks, study length 76 weeks",27.8 mg/kg/day
same,TD50,"mouse, strain Swiss, females, i.p., site: any site (literature study), lesion: malignant tumor, dosed 26 weeks, study length 76 weeks",0.391 mg/kg/day
same,TD50,"mouse, strain Swiss, females, i.p., site: any site (literature study), lesion: several types, types named in the paper, dosed 26 weeks, study length 76 weeks",0.244 mg/kg/day
same,TD50,"mouse, strain Swiss, females, i.p., site: lung, lesion: several types, types named in the paper, dosed 26 weeks, study length 76 weeks",1.05 mg/kg/day
same,TD50,"mouse, strain Swiss, females, i.p., site: uterus, lesion: carcinoma, dosed 26 weeks, study length 76 weeks",5.75 mg/kg/day
same,TD50,"mouse, strain Swiss, females, i.p., site: uterus, lesion: sarcoma, dosed 26 weeks, study length 76 weeks",6.11 mg/kg/day
same,TD50,"mouse, strain Swiss, males, i.p., site: any site (literature study), lesion: benign tumor, dosed 26 weeks, study length 78 weeks",9.84 mg/kg/day
same,TD50,"mouse, strain Swiss, males, i.p., site: any site (literature study), lesion: malignant tumor, dosed 26 weeks, study length 78 weeks",1.74 mg/kg/day
same,TD50,"mouse, strain Swiss, males, i.p., site: any site (literature study), lesion: several types, types named in the paper, dosed 26 weeks, study length 78 weeks",1.15 mg/kg/day
same,TD50,"mouse, strain Swiss, males, i.p., site: lung, lesion: several types, types named in the paper, dosed 26 weeks, study length 78 weeks",1.53 mg/kg/day
same,TD50,"rat, strain BR 46, males, i.v., site: any site (literature study), lesion: malignant tumor, dosed 52 weeks, study length 104 weeks",3.93 mg/kg/day
same,TD50,"rat, strain BR 46, males, i.v., site: any site (literature study), lesion: several types, types named in the paper, dosed 52 weeks, study length 104 weeks",4.01 mg/kg/day
same,TD50,"rat, strain Sprague-Dawley, females, i.p., site: all sites + brain + cerebrum + mammary gland, lesion: lymphoma + olfactory neuroblastoma + mucinous adenocarcinoma + adenocarcinoma, NOS + adenoma, NOS, dosed 26 weeks, study length 86 weeks",0.337 mg/kg/day
same,TD50,"rat, strain Sprague-Dawley, females, i.p., site: all sites, lesion: lymphoma, dosed 26 weeks, study length 80 weeks",4.48 mg/kg/day
same,TD50,"rat, strain Sprague-Dawley, females, i.p., site: all sites, lesion: lymphoma, dosed 26 weeks, study length 86 weeks",5.18 mg/kg/day
same,TD50,"rat, strain Sprague-Dawley, females, i.p., site: any site (literature study), lesion: several types, types named in the paper, dosed 26 weeks, study length 86 weeks",0.329 mg/kg/day
same,TD50,"rat, strain Sprague-Dawley, females, i.p., site: brain + cerebrum, lesion: olfactory neuroblastoma + mucinous adenocarcinoma, dosed 26 weeks, study length 80 weeks",0.36 mg/kg/day
same,TD50,"rat, strain Sprague-Dawley, females, i.p., site: brain + cerebrum, lesion: olfactory neuroblastoma + mucinous adenocarcinoma, dosed 26 weeks, study length 86 weeks",0.416 mg/kg/day
same,TD50,"rat, strain Sprague-Dawley, females, i.p., site: brain, lesion: olfactory neuroblastoma, dosed 26 weeks, study length 80 weeks",0.361 mg/kg/day
same,TD50,"rat, strain Sprague-Dawley, females, i.p., site: brain, lesion: olfactory neuroblastoma, dosed 26 weeks, study length 86 weeks",0.418 mg/kg/day
same,TD50,"rat, strain Sprague-Dawley, females, i.p., site: mammary gland, lesion: adenocarcinoma, NOS + adenoma, NOS, dosed 26 weeks, study length 80 weeks",0.396 mg/kg/day
same,TD50,"rat, strain Sprague-Dawley, females, i.p., site: mammary gland, lesion: adenocarcinoma, NOS + adenoma, NOS, dosed 26 weeks, study length 86 weeks",0.458 mg/kg/day
same,TD50,"rat, strain Sprague-Dawley, females, i.p., site: mammary gland, lesion: adenocarcinoma, NOS, dosed 26 weeks, study length 80 weeks",0.397 mg/kg/day
same,TD50,"rat, strain Sprague-Dawley, females, i.p., site: mammary gland, lesion: adenocarcinoma, NOS, dosed 26 weeks, study length 86 weeks",0.459 mg/kg/day
same,TD50,"rat, strain Sprague-Dawley, males, i.p., site: all sites + brain + mammary gland + olfactory bulb, lesion: leukemia + lymphoma + carcinoma, NOS + olfactory neuroblastoma + adenocarcinoma, NOS + adenoma, NOS, dosed 26 weeks, study length 61 weeks",0.284 mg/kg/day
same,TD50,"rat, strain Sprague-Dawley, males, i.p., site: all sites, lesion: leukemia + lymphoma, dosed 26 weeks, study length 61 weeks",2.1 mg/kg/day
same,TD50,"rat, strain Sprague-Dawley, males, i.p., site: all sites, lesion: leukemia, dosed 26 weeks, study length 61 weeks",13.3 mg/kg/day
same,TD50,"rat, strain Sprague-Dawley, males, i.p., site: all sites, lesion: lymphoma, dosed 26 weeks, study length 61 weeks",2.51 mg/kg/day
same,TD50,"rat, strain Sprague-Dawley, males, i.p., site: any site (literature study), lesion: several types, types named in the paper, dosed 26 weeks, study length 61 weeks",0.186 mg/kg/day
same,TD50,"rat, strain Sprague-Dawley, males, i.p., site: brain + olfactory bulb, lesion: carcinoma, NOS + olfactory neuroblastoma + adenocarcinoma, NOS, dosed 26 weeks, study length 61 weeks",0.343 mg/kg/day
same,TD50,"rat, strain Sprague-Dawley, males, i.p., site: mammary gland, lesion: adenocarcinoma, NOS + adenoma, NOS, dosed 26 weeks, study length 61 weeks",4.5 mg/kg/day
same,TD50,"rat, strain Sprague-Dawley, males, i.p., site: mammary gland, lesion: adenocarcinoma, NOS, dosed 26 weeks, study length 61 weeks",4.85 mg/kg/day
same,TD50,"rat, strain Sprague-Dawley, males, i.p., site: olfactory bulb, lesion: adenocarcinoma, NOS, dosed 26 weeks, study length 61 weeks",4.67 mg/kg/day
